Measurements taken from patent US20260285853A1, “COMPOUNDS AND METHODS FOR MODULATING SPLICING” (REMIX THERAPEUTICS INC., priority 2023, published 2026).
pIC50: −log10 of the molar value. Where two headings read alike, the source gives them in different places.

Legend:
Assay type in all cases: cell-based
HTT mRNA [1] = assay: Splicing RT-qPCR assay (THP), Table 2A
[2] = test system: SH-SY5Y (human neuroblastoma) cells; assay: Cell viability, Cell Titer Glo 2.0 assay; details: read-out: Viability SHSY5Y.3 GI50
How it was run: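 Following a 72 h incubation (37 °C, 5% CO2, 0.1% DMSO final), compound toxicity toward SH-SY5Y cells was quantified by CellTiter-Glo 2.0.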

MYB mRNA [3] = assay: Gene panel canonical junction qPCR assay, decrease in CJ mRNA, Table 3
How it was run: (§1)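 Eleven-point dose responses from 10 uM final, 24 h, DMSO ≤0.25%, in A673 or K562 cells. Relative quantification by 2^(−ΔΔCt) against housekeeper and vehicle was converted to percent response over fixed ΔCt windows and fitted to yield IC50.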

HTT mRNA [4] = assay: as above
How it was run: as §1

MYB mRNA [5] = assay: Splicing RT-qPCR assay (THP), Table 2A
[6] = Table 2A (THP), AJ mRNA increase, read-out: HTT AJ (increase in alternative junction mRNA, AC50)
[7] = Table 2A (THP), CJ mRNA decrease, read-out: HTT CJ (decrease in canonical junction mRNA, IC50)
[8] = decrease in canonical junction (CJ) mRNA, gene panel qPCR, Table 3
[9] = Table 2A (THP), AJ mRNA increase, read-out: MYB AJ (increase in alternative junction mRNA, AC50)
[10] = Table 2A (THP), CJ mRNA decrease, read-out: MYB CJ (decrease in canonical junction mRNA, IC50)
[11] = Table 2A, THP, HTT alternative junction (AJ) mRNA, read-out: HTT AJ (AC50, increase in alternative junction mRNA)
[12] = Table 2A, THP, HTT canonical junction (CJ) mRNA, read-out: HTT CJ (IC50, decrease in canonical junction mRNA)
[13] = decrease in CJ mRNA levels, canonical junction qPCR, gene panel
[14] = Table 2A, THP, MYB alternative junction (AJ) mRNA, read-out: MYB AJ (AC50, increase in alternative junction mRNA)
[15] = Table 2A, THP, MYB canonical junction (CJ) mRNA, read-out: MYB CJ (IC50, decrease in canonical junction mRNA)

| Compound | pIC50 (HTT mRNA [1]; [7]) | GI50 [2] [nM] | pIC50 (MYB mRNA [3]; [8]) | pIC50 (HTT mRNA [4]; [8]) | pIC50 (MYB mRNA [5]; [10]) | pIC50 (HTT mRNA [1]; [12]) | pIC50 (MYB mRNA [3]; [13]) | pIC50 (HTT mRNA [4]; [13]) | pIC50 (MYB mRNA [5]; [15]) | AC50 (HTT mRNA [1]; [6]) [nM] | AC50 (MYB mRNA [5]; [9]) [nM] | AC50 (HTT mRNA [1]; [11]) [nM] | AC50 (MYB mRNA [5]; [14]) [nM] |
| --- | --- | --- | --- | --- | --- | --- | --- | --- | --- | --- | --- | --- | --- |
| CCNC1CCN(c2cc(F)c(C(=O)Nc3cn4ccnc(C)c4n3)c3nn(C)cc23)CC1 [Compound 384, 4-[4-(ethylamino)-1-piperidyl]-6-fluoro-2-methyl-N-(8-methyl-imidazo[1,2-a]-pyrazin-2-yl)-indazole-7-carbox-amide] | < 5.00 | > 10000 | < 5.00 | < 5.00 | < 5.00 | – | – | – | – | > 10000 | > 10000 | – | – |
| C[C@H]1CN(c2ccc(C(=O)Nc3cc(F)c4nn(C)cc4c3)c3sc(OCC4CCNC4)nc23)C[C@H](C)N1 (stereo partly drawn) [Compound 797, 4-((3S,5S)-3,5-dimethylpiperazin-1-yl)-N-(7-fluoro-2-methyl-2H-indazol-5-yl)-2-(pyrrolidin-3-ylmethoxy)benzo[d]thiazole-7-carboxamide bis(2,2,2-trifluoroacetate)] | – | > 10000 | – | – | – | < 5.00 | < 5.00 | < 5.00 | < 5.00 | – | – | > 10000 | > 10000 |
| CCNC1CCN(c2ccc(C(=O)Nc3cc(Oc4cccnc4)c4nc(C)cn4c3)c3nn(C)cc23)CC1 [Compound 353, 4-[4-(ethylamino)-1-piperidyl]-2-methyl-N-[2-methyl-8-(3-pyridyloxy)-imidazo[1,2-a]-pyridin-6-yl]-indazole-7-carboxamide] | 5.00 to 6.00 | > 10000 | 6.00 to 7.00 | 5.00 to 6.00 | 6.00 to 7.00 | – | – | – | – | 1000 to 10000 | 100 to 1000 | – | – |
| Cc1cn2cc(NC(=O)c3ccc(N4CCC(NC5CC5)CC4)c4cn(C)nc34)nc2c(CNC(N)=O)n1 [Compound 829] | – | > 10000 | – | – | – | < 5.00 | < 5.00 | < 5.00 | < 5.00 | – | – | > 10000 | > 10000 |
| Cc1cn2cc(NC(=O)c3c(F)cc(N4CCC(NC5CC5)CC4)c4cn(C)nc34)nc2c(CNS(C)(=O)=O)n1 [Compound 393, 4-(4-(cyclopropylamino)piperidin-1-yl)-6-fluoro-2-methyl-N-(6-methyl-8-(methylsulfonamidomethyl)imidazo[1,2-a]pyrazin-2-yl)-2H-indazole-7-carboxamide 2,2,2-trifluoroacetate] | < 5.00 | 1000 to 10000 | 6.00 to 7.00 | < 5.00 | 6.00 to 7.00 | – | – | – | – | > 10000 | 100 to 1000 | – | – |
| CCNC1CCN(c2ccc(C(=O)Nc3cn(C)c(=O)cc3OC)c3nn(C)cc23)CC1 [Compound 560, 4-[4-(ethylamino)-1-piperidyl]-N-(4-methoxy-1-methyl-6-oxo-3-pyridyl)-2-methyl-indazole-7-carboxamide] | < 5.00 | > 10000 | 5.00 to 6.00 | < 5.00 | 5.00 to 6.00 | – | – | – | – | > 10000 | > 10000 | – | – |
| COc1nc2c(C(=O)Nc3cn4c(C)nc(C)cc4n3)ccc(N3C[C@H](C)N[C@@H](C)C3)c2s1 [Compound 782, N-(5,7-dimethylimidazo[1,2-c]pyrimidin-2-yl)-7-[(3S,5S)-3,5-dimethylpiperazin-1-yl]-2-methoxy-1,3-benzothiazole-4-carboxamide] | – | 1000 to 10000 | – | – | – | < 5.00 | 6.00 to 7.00 | < 5.00 | 6.00 to 7.00 | – | – | > 10000 | 100 to 1000 |
| CCNC1CCN(c2ccc(C(=O)Nc3cc(CO)c4nc(C)cn4c3)c3nn(C)cc23)CC1 [Compound 329, 4-[4-(ethylamino)-1-piperidyl]-N-[8-(hydroxymethyl)-2-methyl-imidazo[1,2-a]pyridin-6-yl]-2-methyl-indazole-7-carboxamide] | < 5.00 | 1000 to 10000 | 6.00 to 7.00 | < 5.00 | 6.00 to 7.00 | – | – | – | – | 1000 to 10000 | 100 to 1000 | – | – |
| COc1cc2c(N3CCC(NC4CC4)CC3)ccc(C(=O)Nc3cn4cc(C)nc(C)c4n3)n2n1 [Compound 633, 4-[4-(cyclopropyl-amino)-1-piperidyl]-N-(6,8-dimethyl-imidazo[1,2-a]pyrazin-2-yl)-2-methoxypyrazolo [1,5-a]-pyridine-7-carboxamide] | – | > 10000 | – | – | – | < 5.00 | 6.00 to 7.00 | < 5.00 | 6.00 to 7.00 | – | – | > 10000 | 100 to 1000 |

The next lines start with results.

| pIC50 (HTT mRNA [1]; [7]) | GI50 [2] [nM] | pIC50 (MYB mRNA [3]; [8]) | pIC50 (HTT mRNA [4]; [8]) | pIC50 (MYB mRNA [5]; [10]) | pIC50 (HTT mRNA [1]; [12]) | pIC50 (MYB mRNA [3]; [13]) | pIC50 (HTT mRNA [4]; [13]) | pIC50 (MYB mRNA [5]; [15]) | Compound | AC50 (HTT mRNA [1]; [6]) [nM] | AC50 (MYB mRNA [5]; [9]) [nM] | AC50 (HTT mRNA [1]; [11]) [nM] | AC50 (MYB mRNA [5]; [14]) [nM] |
| --- | --- | --- | --- | --- | --- | --- | --- | --- | --- | --- | --- | --- | --- |
| < 5.00 | 100 to 1000 | 5.00 to 6.00 | < 5.00 | 5.00 to 6.00 | – | – | – | – | Cc1cn2cc(NC(=O)c3ccc(N4CCC(N)CC4)c4cn(C)nc34)c(F)c2c(C)n1 [Compound 580, 4-(4-amino-1-piperidyl)-N-(8-fluoro-1,3-dimethyl-pyrrolo[1,2-a]-pyrazin-7-yl)-2-methyl-indazole-7-carboxamide] | > 10000 | 1000 to 10000 | – | – |
| – | 1000 to 10000 | – | – | – | < 5.00 | 5.00 to 6.00 | < 5.00 | 5.00 to 6.00 | COc1nc2c(C(=O)Nc3cc(F)c4nn(C)cc4c3)ccc(N3CC(C)NCC3C)c2s1 (stereo not drawn) [Compound 772, 7-(2,5-dimethylpiperazin-1-yl)-N-(7-fluoro-2-methyl-indazol-5-yl)-2-methoxy-1,3-benzothiazole-4-carboxamide] | – | – | > 10000 | 100 to 1000 |
| 6.00 to 7.00 | 100 to 1000 | > 7.00 | 6.00 to 7.00 | > 7.00 | – | – | – | – | Cn1cc2cc(NC(=O)c3c(F)cc(N4CCC(NC5CC5)CC4)c4cn(C)nc34)c(F)cc2n1 [Compound 422, 4-[4-(cyclopropylamino)-1-piperidy1]-6-fluoro-N-(6-fluoro-2-methyl-indazol-5-yl)-2-methyl-indazole-7-carboxamide] | 100 to 1000 | < 100 | – | – |
| < 5.00 | 1000 to 10000 | < 5.00 | < 5.00 | < 5.00 | – | – | – | – | COc1cc2nn(C)cc2cc1NC(=O)c1c(C)cc(N2CCC(NC3CC3)CC2)c2cn(C)nc12 [Compound 472, 4-[4-(cyclopropylamino)-1-piperidyl]-N-(6-methoxy-2-methyl-indazol-5-yl)-2,6-dimethylindazole-7-carboxamide] | > 10000 | 1000 to 10000 | – | – |
| 5.00 to 6.00 | 1000 to 10000 | 5.00 to 6.00 | 5.00 to 6.00 | 5.00 to 6.00 | – | – | – | – | COc1cc2nn(C)cc2cc1NC(=O)c1c(NCCO)cc(N2CCC(NC3CC3)CC2)c2cn(C)nc12 [Compound 441, 4-[4-(cyclopropylamino)-1-piperidyl]-6-(2-hydroxyethylamino)-N-(6-methoxy-2-methyl-indazol-5-yl)-2-methyl-indazole-7-carboxamide] | 1000 to 10000 | 1000 to 10000 | – | – |
| – | 100 to 1000 | – | – | – | 6.00 to 7.00 | 6.00 to 7.00 | 6.00 to 7.00 | 6.00 to 7.00 | CNC1CN(c2ccc(C(=O)Nc3cn4cc(C)nc(CNS(C)(=O)=O)c4n3)c3nn(C)cc23)C1 [Compound 849] | – | – | 100 to 1000 | 100 to 1000 |
| 5.00 to 6.00 | 100 to 1000 | 6.00 to 7.00 | 5.00 to 6.00 | 6.00 to 7.00 | – | – | – | – | COc1c(NC(=O)c2c(F)cc(N3CCC(NC4CC4)CC3)c3cn(C)nc23)cc2cn(C)nc2c1C [Compound 425, 4-[4-(cyclopropylamino)-1-piperidy1]-6-fluoro-N-(6-methoxy-2,7-dimethyl-indazol-5-y1)-2-methyl-indazole-7-carboxamide] | 1000 to 10000 | 100 to 1000 | – | – |
| – | 100 to 1000 | – | – | – | 5.00 to 6.00 | > 7.00 | 5.00 to 6.00 | > 7.00 | COc1cc2c(N3C[C@H](C)N[C@@H](C)C3)ccc(C(=O)Nc3cc4cn(C)nc4cc3OC)n2n1 [Compound 698, 4-[(3S,5S)-3,5-dimethylpiperazin-1-yl]-2-methoxy-N-(6-methoxy-2-methyl-indazol-5-yl) pyrazolo[1,5-a]pyridine-7-carboxamide] | – | – | 1000 to 10000 | < 100 |
| 5.00 to 6.00 | 100 to 1000 | > 7.00 | 5.00 to 6.00 | > 7.00 | – | – | – | – | COc1cc2nn(C)cc2cc1NC(=O)c1c(O)cc(N2CCC(NC3CC3)CC2)c2cn(C)nc12 [Compound 463, 4-[4-(cyclopropylamino)-1-piperidyl]-6-hydroxy-N-(6-methoxy-2-methyl-indazol-5-yl)-2-methyl-indazole-7-carboxamide] | 1000 to 10000 | < 100 | – | – |
